Data: patent US20240158446A1, “CYCLIC COMPOUND HAVING SELECTIVE INHIBITORY ACTION ON KRAS OVER HRAS AND NRAS” (CHUGAI SEIYAKU KABUSHIKI KAISHA, priority 2021, published 2024)
Read-outs that look alike come from different tables or passages of the source.

Experiments:
[1] = target: GDP-bound NRAS wild-type protein (Homo sapiens, UniProt P01111); assay: Binding to NRAS by surface plasmon resonance (SPR), Single Cycle Kinetics; conditions: for NRAS/KRAS (ratio of KD value with respect to GDP-bound NRAS wild-type protein to KD value with respect to KRAS): SPR KD ratio NRAS/KRAS, class symbols; for NRAS/KRAS (ratio of KD value for NRAS to KD value for KRAS) / ratio of the KD value with respect to GDP-bound NRAS wild-type protein to the KD value with respect to KRAS: SPR; for NRAS/KRAS (ratio of KD value for NRAS to KD value for KRAS): GDP-bound NRAS wild-type protein vs GDP-bound KRAS wild-type protein
Chain of GDP-bound NRAS wild-type protein (P01111 whole entry): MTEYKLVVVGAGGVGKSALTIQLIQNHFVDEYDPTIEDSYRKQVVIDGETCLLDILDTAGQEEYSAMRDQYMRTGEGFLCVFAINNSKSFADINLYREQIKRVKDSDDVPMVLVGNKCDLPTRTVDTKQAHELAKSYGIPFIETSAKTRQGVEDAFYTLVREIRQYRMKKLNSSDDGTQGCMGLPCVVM

[2] = target: GDP-bound HRAS wild-type protein (Homo sapiens, UniProt P01112); assay: Binding to HRAS by surface plasmon resonance (SPR), Single Cycle Kinetics; conditions: for HRAS/KRAS (ratio of KD value with respect to GDP-bound HRAS wild-type protein to KD value with respect to KRAS): SPR KD ratio HRAS/KRAS, class symbols; for HRAS/KRAS (ratio of KD value for HRAS to KD value for KRAS) / ratio of the KD value with respect to GDP-bound HRAS wild-type protein to the KD value with respect to KRAS: SPR; for HRAS/KRAS (ratio of KD value for HRAS to KD value for KRAS): GDP-bound HRAS wild-type protein vs GDP-bound KRAS wild-type protein
Chain of GDP-bound HRAS wild-type protein (P01112 whole entry): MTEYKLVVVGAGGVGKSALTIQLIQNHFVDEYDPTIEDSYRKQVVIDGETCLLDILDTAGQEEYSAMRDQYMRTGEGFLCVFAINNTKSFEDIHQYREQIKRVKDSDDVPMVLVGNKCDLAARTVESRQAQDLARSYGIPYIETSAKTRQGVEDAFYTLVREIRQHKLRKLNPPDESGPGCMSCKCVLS

[3] = target: GDP-bound KRAS wild-type protein (Homo sapiens, UniProt P01116); assay: Binding to KRAS by surface plasmon resonance (SPR), Single Cycle Kinetics
Chain of GDP-bound KRAS wild-type protein (P01116 whole entry): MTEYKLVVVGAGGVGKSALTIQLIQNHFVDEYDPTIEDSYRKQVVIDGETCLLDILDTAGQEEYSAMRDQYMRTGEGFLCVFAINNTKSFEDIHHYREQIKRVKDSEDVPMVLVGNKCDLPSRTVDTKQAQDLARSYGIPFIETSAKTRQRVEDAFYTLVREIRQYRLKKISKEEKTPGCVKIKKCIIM

[4] = system: human lung cancer strain NCI-H441;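 note: cell proliferation inhibition after four days measured by CellTiter-Glo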
[5] = SPR Single Cycle Kinetics, GDP-bound KRAS wild-type protein, 1:1 binding model, read-out: KRAS KD
[6] = SPR, Single Cycle Kinetics, GDP-bound KRAS wild-type protein, read-out: KRAS KD
[7] = SPR, Single Cycle Kinetics, 1:1 binding model, GDP-bound KRAS wild-type protein, read-out: KRAS KD
[8] = read-out: NCI-H441 cell proliferation inhibitory activity, 50% proliferation inhibitory concentration (IC50 value), NCI-H441, four days, CellTiter-Glo

Structure (SMILES) | IC50 [4] | Kd [3, 6] | NRAS/KRAS (ratio of KD value for NRAS to KD value for KRAS) [1] | HRAS/KRAS (ratio of KD value for HRAS to KD value for KRAS) [2] | also measured
CCOC[C@H]1C(=O)N[C@@H]([C@@H](C)CC)C(=O)N(C2CC2)CC(=O)N(C)[C@@H]2C/C=C\CCN(C2=O)[C@@H](Cc2ccc(C)cc2)C(=O)N(C)CC(=O)N[C@@H](CCc2ccc(C(F)(F)F)c(OC)c2)C(=O)N2C[C@H](OCC)C[C@@H]2C(=O)NC2(CC(C)(C)C2)C(=O)N(C)[C@H](CC2CCC2)C(=O)N(C)[C@H](C(=O)N(C)C)CC(=O)N1C (stereo in doubt) [PP2760] | 144 nM | – | – | – | NRAS/KRAS (ratio of KD value with respect to GDP-bound NRAS wild-type protein to KD value with respect to KRAS) [1]: A (a compound having 10 or more and less than 20 is denoted as A); HRAS/KRAS (ratio of KD value with respect to GDP-bound HRAS wild-type protein to KD value with respect to KRAS) [2]: B (a compound having 3 or more and less than 10 is denoted as B); Kd [3, 5]: 4.8 nM
CCO[C@@H]1C[C@H]2C(=O)NC3(CC(C)(C)C3)C(=O)N(C)[C@@H](C3CCCC3)C(=O)N(C)[C@H](C(=O)N(C)C)CC(=O)N(C)[C@H]3CCCCCc4ccc(cc4)C[C@@H](C(=O)N(C)CC(=O)N[C@@H](CCc4ccc(Cl)c(Cl)c4)C(=O)N2C1)N1CC/C=C\C[C@@H](C1=O)N(C)C(=O)CN(C)C(=O)[C@H]([C@@H](C)CC)NC3=O [PP3076] | – | 0.059 nM | AA (a compound having 20 or more is denoted as AA) | A (a compound having 10 or more and less than 20 is denoted as A) | ratio of the KD value with respect to GDP-bound NRAS wild-type protein to the KD value with respect to KRAS [1]: AA (a compound having 20 or more is denoted as AA); ratio of the KD value with respect to GDP-bound HRAS wild-type protein to the KD value with respect to KRAS [2]: A (a compound having 10 or more and less than 20 is denoted as A); IC50 [4, 8]: 4.1 nM
CCC[C@H]1C(=O)N[C@@H]([C@@H](C)CC)C(=O)N(C)CC(=O)N(C)[C@H]2C/C=C\CCN(C2=O)[C@@H](Cc2ccc(C(F)(F)F)cc2)C(=O)N(C)CC(=O)N[C@@H](CCc2cc(F)c(C(F)(F)F)c(F)c2)C(=O)N2C[C@H](OCC)C[C@H]2C(=O)N(C)C2(CCC2)C(=O)N(C)[C@@H](C2CCCC2)C(=O)N(C)[C@H](C(=O)N2CCCCC2)CC(=O)N1C [PP3118, (2S,8S,12R,14S,20S,23S,27S,30S,36S,38Z)-20-cyclopentyl-8-[2-[3,5-difluoro-4-(trifluoromethyl)phenyl]ethyl]-12-ethoxy-4,16,19,22,26,32,35-heptamethyl-30-[(1S)-1-methylpropyl]-23-(piperidine-1-carbonyl)-27-propyl-2-[[4-(trifluoromethyl)phenyl]methyl]spiro[1,4,7,10,16,19,22,26,29,32,35-undecazatricyclo[34.5.1.0^10,14]dotetracont-38-ene-17,1′-cyclobutane]-3,6,9,15,18,21,25,28,31,34,42-undecone] | – | 0.12 nM | A (a compound having 10 or more and less than 20 is denoted as A) | B (a compound having 3 or more and less than 10 is denoted as B) | ratio of the KD value with respect to GDP-bound NRAS wild-type protein to the KD value with respect to KRAS [1]: A (a compound having 10 or more and less than 20 is denoted as A); ratio of the KD value with respect to GDP-bound HRAS wild-type protein to the KD value with respect to KRAS [2]: B (a compound having 3 or more and less than 10 is denoted as B); Kd ([3]; SPR, Single Cycle Kinetics, 1:1 binding model, read-out: KD value with respect to GDP-bound KRAS wild-type protein): 0.12 nM; IC50 [4, 8]: 6.7 nM
CCC(CC)[C@H]1C(=O)N(C)[C@H](C(=O)N(C)C)CC(=O)N(C)[C@@H](COC)C(=O)N[C@@H]([C@@H](C)CC)C(=O)N2CCC[C@H]2C(=O)N(C)[C@H]2C/C=C\CCN(C2=O)[C@@H](Cc2ccc(C(F)(F)F)cc2)C(=O)N(C)CC(=O)N[C@@H](CCc2ccc(Cl)c(Cl)c2)C(=O)N2C[C@H](OC(C)C)C[C@H]2C(=O)NC2(CC(C)(C)C2)C(=O)N1C [PP2639] | 81.6 nM | – | – | – | NRAS/KRAS (ratio of KD value with respect to GDP-bound NRAS wild-type protein to KD value with respect to KRAS) [1]: AA (a compound having 20 or more is denoted as AA); HRAS/KRAS (ratio of KD value with respect to GDP-bound HRAS wild-type protein to KD value with respect to KRAS) [2]: A (a compound having 10 or more and less than 20 is denoted as A); Kd [3, 5]: 1.1 nM
CCO[C@@H]1C[C@H]2C(=O)NC3(CCC3)C(=O)N(C)[C@@H](C3CCCC3)C(=O)N(C)[C@H](C(=O)N3CCOCC3)CC(=O)N(C)[C@@H](CC(C)C)C(=O)N[C@@H]([C@@H](C)CC)C(=O)N(C)CC(=O)N(C)[C@H]3CCCCCN(C3=O)[C@@H](Cc3ccc4sccc4c3)C(=O)N(C)CC(=O)N[C@@H](CCc3cc(F)c(C(F)(F)F)c(F)c3)C(=O)N2C1 [PP0920] | 75.5 nM | 0.29 nM | B (a compound having 3 or more and less than 10 is denoted as B) | B (a compound having 3 or more and less than 10 is denoted as B) | –
CCC(CC)[C@H]1C(=O)N(C)[C@H](C(=O)N(C)C)CC(=O)N(C)[C@@H](COC)C(=O)N[C@@H]([C@@H](C)CC)C(=O)N(C2CC2)CC(=O)N(C)[C@H]2C/C=C\CCN(C2=O)[C@@H](CC2CCCCC2)C(=O)N(C)CC(=O)N[C@@H](CCc2cc(F)c(C(F)(F)F)c(F)c2)C(=O)N2C[C@H](OC(C)C)C[C@H]2C(=O)NC2(CC(C)(C)C2)C(=O)N1C [PP2515] | 384 nM | 5.1 nM | A (a compound having 10 or more and less than 20 is denoted as A) | A (a compound having 10 or more and less than 20 is denoted as A) | –

More lines, main results first:

IC50 [4] | Kd [3, 6] | Structure (SMILES) | NRAS/KRAS (ratio of KD value for NRAS to KD value for KRAS) [1] | HRAS/KRAS (ratio of KD value for HRAS to KD value for KRAS) [2] | also measured
57.5 nM | 0.18 nM | CCO[C@@H]1C[C@H]2C(=O)NC3(CCC3)C(=O)N(C)[C@@H](C3CCCC3)C(=O)N(C)[C@H](C(=O)N(C)C)CC(=O)N(C)[C@@H](Cc3ccc(Cl)c(Cl)c3)C(=O)N[C@@H]([C@@H](C)CC)C(=O)N(C)CC(=O)N(C)[C@H]3CCCCCN(C3=O)[C@@H](Cc3ccc(F)cc3)C(=O)N(C)CC(=O)N[C@@H](CCc3cc(F)c(C(F)(F)F)c(F)c3)C(=O)N2C1 [PP1158] | B (a compound having 3 or more and less than 10 is denoted as B) | B (a compound having 3 or more and less than 10 is denoted as B) | –
46.9 nM | 0.17 nM | CCO[C@@H]1C[C@H]2C(=O)NC3(CCC3)C(=O)N(C)[C@@H](C3CCCC3)C(=O)N(C)[C@H](C(=O)N3CCOCC3)CC(=O)N(C)[C@@H](CCOC)C(=O)N[C@@H]([C@@H](C)CC)C(=O)N(C)CC(=O)N(C)[C@H]3CCCCCN(C3=O)[C@@H](Cc3ccc(F)cc3)C(=O)N(C)CC(=O)N[C@@H](CCc3cc(F)c(C(F)(F)F)c(F)c3)C(=O)N2C1 [PP1180] | B (a compound having 3 or more and less than 10 is denoted as B) | B (a compound having 3 or more and less than 10 is denoted as B) | –
19.4 nM | – | CCCC[C@H]1C(=O)N[C@@H]([C@@H](C)CC)C(=O)N(C)CC(=O)N(C)[C@H]2C/C=C\CCN(C2=O)[C@@H](Cc2ccc(C(F)(F)F)cc2)C(=O)N(C)CC(=O)N[C@@H](CCc2cc(F)c(C(F)(F)F)c(F)c2)C(=O)N2C[C@H](OCC)C[C@H]2C(=O)NC2(CCC2)C(=O)N(C)[C@@H](C2CCCC2)C(=O)N(C)[C@H](C(=O)N2CCCC2)CC(=O)N1C [PP1396, (2S,8S,12R,14S,20S,23S,27S,30S,36S,38Z)-27-butyl-20-cyclopentyl-8-[2-[3,5-difluoro-4-(trifluoromethyl)phenyl]ethyl]-12-ethoxy-4,19,22,26,32,35-hexamethyl-30-[(1S)-1-methylpropyl]-23-(pyrrolidine-1-carbonyl)-2-[[4-(trifluoromethyl)phenyl]methyl]spiro[1,4,7,10,16,19,22,26,29,32,35-undecazatricyclo[34.5.1.0^10,14]dotetracont-38-ene-17,1′-cyclobutane]-3,6,9,15,18,21,25,28,31,34,42-undecone] | – | – | NRAS/KRAS (ratio of KD value for NRAS to KD value for KRAS) ([1]; KD ratio class): AA (a compound having 20 or more is denoted as AA); HRAS/KRAS (ratio of KD value for HRAS to KD value for KRAS) ([2]; KD ratio class): A (a compound having 10 or more and less than 20 is denoted as A); Kd [3, 7]: 0.14 nM
34.7 nM | – | CC[C@H](C)[C@@H]1NC(=O)[C@H](CC)N(C)C(=O)C[C@@H](C(=O)N2CCOCC2)N(C)C(=O)[C@H](C2CCCC2)N(C)C(=O)C2(CCC2)NC(=O)[C@@H]2CCCN2C(=O)[C@H](CCc2cc(F)c(C(F)(F)F)c(F)c2)NC(=O)CN(C)C(=O)[C@H](Cc2ccc(C(F)(F)F)cc2)N2C[C@H](C)[C@H](C)C[C@@H](C2=O)N(C)C(=O)[C@@H]2CCN2C1=O [PP1363] | – | – | NRAS/KRAS (ratio of KD value for NRAS to KD value for KRAS) ([1]; KD ratio class): A (a compound having 10 or more and less than 20 is denoted as A); HRAS/KRAS (ratio of KD value for HRAS to KD value for KRAS) ([2]; KD ratio class): B (a compound having 3 or more and less than 10 is denoted as B); Kd [3, 7]: 0.32 nM
27.8 nM | 0.26 nM | CCO[C@@H]1C[C@H]2C(=O)NC3(CCC3)C(=O)N(C)[C@@H](C3CCCC3)C(=O)N(C)[C@H](C(=O)N3CCOCC3)CC(=O)N(C)[C@@H](Cc3cccs3)C(=O)N[C@@H]([C@@H](C)CC)C(=O)N(C)CC(=O)N(C)[C@H]3CCCCCN(C3=O)[C@@H](Cc3ccc(F)cc3)C(=O)N(C)CC(=O)N[C@@H](CCc3cc(F)c(C(F)(F)F)c(F)c3)C(=O)N2C1 [PP1183] | B (a compound having 3 or more and less than 10 is denoted as B) | B (a compound having 3 or more and less than 10 is denoted as B) | –
